One assay concerns Pyricularia oryzae. Description: microbe, parasite or virus in culture. In kind it is cell-based. Conditions: 168 h, read-out: % control compared to the untreated check (radial growth).
The next assay concerns Alternaria solani. Description: Alternaria solani (early blight of tomato/potato) in vitro test, radial growth on Potato Dextrose Agar. The class given is cell-based. Conditions: 168 h, 300 ppm, seven days, 25° C., read-out: % control compared to the untreated check (radial growth).
Assay [1] concerns Fusarium culmorum. Description: Greenhouse Fusarium culmorum test in wheat, preventive. In kind it is in vivo. The settings on record: 24 h, read-out: Efficacy (% control), disease severity vs untreated check. As for the experimental part:
Compounds were dissolved in 2% DMSO/Acetone & then mixed with water to calibrated spray volume of 50 ml. This 50 ml spray solution was poured into the spray bottles for further applications.
To test the preventive activity of compounds, healthy young wheat plants raised in the greenhouse were sprayed with active compound preparation at the stated application rates inside the spray cabinets using hallowcone nozzles. One day after treatment, the plants were inoculated with spore suspension (2% Malt) containing 2×10^6 Fusarium culmorum inoculum. The inoculated plants were then kept in greenhouse chamber at 24° C. temperature and 80-90% relative humidity for disease expression.
A visual assessment of compound's performance was carried by rating the disease severity (0-100% scale) on treated plants on 3, 7, 10 and 15 days after application. Efficacy (% control) of the compounds was calculated by comparing the disease rating in the treatment with untreated control. The sprayed plants were also assessed for compound's phytotoxic effects by recording symptoms like necrosis, chlorosis and stunting.

In a further assay the test system is Botrytis cinera. Description: Greenhouse Botrytis cinera test in tomato, preventive. In kind it is in vivo. Conditions: 24 h, plants sprayed one day before inoculation, read-out: Efficacy (% control), disease severity vs untreated check.
The next assay concerns Botrytis cinerea. Description: Botrytis cinerea (gray mold) in vitro test, radial growth on Potato Dextrose Agar. The class given is cell-based. Conditions: 168 h, 300 ppm, seven days, 22° C., read-out: % (control) compared to the untreated check (radial growth).
Another assay has as its system Rhizoctonia solani. Description: Rhizoctonia solani (rice sheath blight/potato black scurf) in vitro test, radial growth on Potato Dextrose Agar. The settings on record: 168 h, 300 ppm, seven days, 25° C., read-out: % control compared to the untreated check (radial growth). The class given is cell-based.
Another assay deals with Colletotrichum capsici. Description: Colletotrichum capsici (anthracnose) in vitro test, radial growth on Potato Dextrose Agar. The class given is cell-based. Conditions: Colletotrichum truncatum, 168 h; 300 ppm; seven days, 25° C.; read-out: % control compared to the untreated check (radial growth).
The test system of another assay is Septoria lycopersici. Description: Septoria lycopersici (leaf spot of tomato) in vitro test, radial growth on Potato Dextrose Agar. In kind it is cell-based. The settings on record: 168 h, seven days, 25° C., read-out: % control compared to the untreated check (radial growth).
Assay [2] deals with Fusarium culmorum. Description: Fusarium culmorum (foot rot of cereals) in vitro test, radial growth on Potato Dextrose Agar. In kind it is cell-based. The settings on record: Fusarium culmorum, 168 h, read-out: % control compared to the untreated check (radial growth).

For `CCN(C)C=Nc1cc(C)c(Cc2ccc(S(C)(=O)=O)cc2)cc1C` [Compound 12, N′-(2,5-dimethyl-4-(4-(methylsulfonyl)benzyl)phenyl)-N-ethyl-N-methylformimidamide], the inhibition of growth at 300 ppm with Pyricularia oryzae and in the assay with Alternaria solani was greater than 75% throughout. Further, the pest or weed control at 500 ppm in the assay with Fusarium culmorum [1] and with Botrytis cinera was 70 to 100% throughout.
On to `CCN(C)C=Nc1cc(C)c(Cc2ccc(F)cc2)cc1C` [Compound 57, N-ethyl-N′-(4-(4-fluorobenzyl)-2,5-dimethylphenyl)-N-methylformimidamide], for which the inhibition of growth at 300 ppm with Pyricularia oryzae was greater than 75%; in the assay on Alternaria solani it was greater than 75%; with Botrytis cinerea, greater than 80%; in the assay with Rhizoctonia solani it was greater than 80%; with Colletotrichum capsici it was greater than 80%; in the assay on Septoria lycopersici, greater than 70%. In addition, the inhibition of growth at 300 ppm in the assay on Fusarium culmorum [2] turned out to be 75%. For the same compound, the pest or weed control at 500 ppm in the assay on Fusarium culmorum [1] fell in the range of 70 to 100%.
For the compound `CCN(C)C=Nc1cc(C)c(Cc2cccc(Br)c2)cc1Cl` [Compound 13, N′-(4-(3-bromobenzyl)-2-chloro-5-methylphenyl)-N-ethyl-N-methylformimidamide], the inhibition of growth at 300 ppm with Pyricularia oryzae is greater than 75%; in the assay on Alternaria solani, greater than 75%; in the assay with Botrytis cinerea it was greater than 80%; with Rhizoctonia solani it was greater than 80%; in the assay with Colletotrichum capsici, greater than 80%; in the assay on Septoria lycopersici, greater than 70%. The pest or weed control at 500 ppm in the assay with Fusarium culmorum [1] and with Botrytis cinera was 70 to 100% each time.
With `CCN(C)C=Nc1cc(C)c(Cc2ccccc2Cl)cc1C` [Compound 18, N′-(4-(2-chlorobenzyl)-2,5-dimethylphenyl)-N-ethyl-N-methylformimidamide], the inhibition of growth at 300 ppm in the assay on Pyricularia oryzae is greater than 75%; in the assay on Alternaria solani, greater than 75%; in the assay with Botrytis cinerea it was greater than 80%; with Rhizoctonia solani it was greater than 80%; with Colletotrichum capsici it was greater than 80%; in the assay on Septoria lycopersici it was greater than 70%. Also, the inhibition of growth at 300 ppm in the assay on Fusarium culmorum [2] came to 75%. The pest or weed control at 500 ppm in the assay on Fusarium culmorum [1] and in the assay with Botrytis cinera was 70 to 100% in each case.
`CCN(C)C=Nc1cc(C)c(Cc2cccc(F)c2)cc1Cl` [Compound 30, N′-(2-chloro-4-(3-fluorobenzyl)-5-methylphenyl)-N-ethyl-N-methylformimidamide]: the inhibition of growth at 300 ppm was greater than 75% in the assay on Pyricularia oryzae; greater than 75% in the assay with Alternaria solani; greater than 80% with Botrytis cinerea; greater than 80% in the assay on Rhizoctonia solani; greater than 80% in the assay with Colletotrichum capsici; greater than 70% in the assay on Septoria lycopersici. Besides, the inhibition of growth at 300 ppm with Fusarium culmorum [2] was 75%. Also, the pest or weed control at 500 ppm with Fusarium culmorum [1] lay in the range of 70 to 100%.
On to `CCN(C)C=Nc1cc(C)c(Cc2ccc(F)c(Cl)c2)cc1C` [Compound 28, N′-(4-(3-chloro-4-fluorobenzyl)-2,5-dimethylphenyl)-N-ethyl-N-methylformimidamide], for which the inhibition of growth at 300 ppm in the assay with Pyricularia oryzae was greater than 75%; in the assay with Alternaria solani, greater than 75%; in the assay with Botrytis cinerea, greater than 80%; with Rhizoctonia solani, greater than 80%; in the assay with Colletotrichum capsici it was greater than 80%; with Septoria lycopersici it was greater than 70%. The inhibition of growth at 300 ppm in the assay on Fusarium culmorum [2] amounted to 75%. The pest or weed control at 500 ppm with Fusarium culmorum [1] and with Botrytis cinera was 70 to 100% in each case.
Regarding `CCN(C)C=Nc1cc(C)c(Cc2ccc(C(F)(F)F)cc2)cc1Cl` [Compound 101, N′-(2-chloro-5-methyl-4-(4-(trifluoromethyl)benzyl)phenyl)-N-ethyl-N-methylformimidamide], the inhibition of growth at 300 ppm is greater than 75% in the assay with Pyricularia oryzae, greater than 75% in the assay with Alternaria solani, greater than 80% in the assay on Botrytis cinerea and greater than 80% in the assay with Rhizoctonia solani. In addition, the pest or weed control at 500 ppm with Fusarium culmorum [1] and with Botrytis cinera was 70 to 100% throughout.
`CCN(C)C=Nc1cc(C)c(Cc2ccccc2Cl)cc1Cl` [Compound 17, N′-(2-chloro-4-(2-chlorobenzyl)-5-methylphenyl)-N-ethyl-N-methylformimidamide]: the inhibition of growth at 300 ppm is greater than 75% with Pyricularia oryzae; greater than 75% with Alternaria solani; greater than 80% in the assay on Botrytis cinerea; greater than 80% in the assay on Rhizoctonia solani; greater than 80% in the assay with Colletotrichum capsici; greater than 70% in the assay on Septoria lycopersici. In the assay on Fusarium culmorum [2], the inhibition of growth at 300 ppm was 75%. Besides, the pest or weed control at 500 ppm with Fusarium culmorum [1] and in the assay on Botrytis cinera was 70 to 100% in each case.
In the case of `CCN(C)C=Nc1cc(C)c(Cc2ccc(Cl)c(C(F)(F)F)c2)cc1Cl` [Compound 136, N′-(2-chloro-4-(4-chloro-3-(trifluoromethyl)benzyl)-5-methylphenyl)-N-ethyl-N-methylformimidamide], the inhibition of growth at 300 ppm in the assay on Pyricularia oryzae is greater than 75%; in the assay on Alternaria solani, greater than 75%; in the assay on Botrytis cinerea, greater than 80%; with Rhizoctonia solani, greater than 80%; in the assay with Colletotrichum capsici it was greater than 80%; in the assay with Fusarium culmorum [2], 75%. In addition, in the assay on Fusarium culmorum [1], the pest or weed control at 500 ppm fell in the range of 70 to 100%.
Turning to `CCN(C)C=Nc1cc(C)c(Cc2cc(F)ccc2C)cc1C` [Compound 157, N-ethyl-N′-(4-(5-fluoro-2-methylbenzyl)-2,5-dimethylphenyl)-N-methylformimidamide], the inhibition of growth at 300 ppm was greater than 75% in the assay on Pyricularia oryzae; greater than 75% in the assay on Alternaria solani; greater than 80% in the assay with Botrytis cinerea; greater than 80% in the assay with Rhizoctonia solani; greater than 80% in the assay with Colletotrichum capsici; greater than 70% in the assay on Septoria lycopersici. Further, in the assay with Fusarium culmorum [2], the inhibition of growth at 300 ppm was found to be 75%. The pest or weed control at 500 ppm in the assay on Fusarium culmorum [1] was in the range of 70 to 100%.
As for `Cc1cc(N=CN(C)C(C)C)c(C)cc1Cc1ccccc1F` [Compound 81, N′-(4-(2-fluorobenzyl)-2,5-dimethylphenyl)-N-isopropyl-N-methylformimidamide], the inhibition of growth at 300 ppm is greater than 75% in the assay with Pyricularia oryzae; greater than 75% with Alternaria solani; greater than 80% with Botrytis cinerea; greater than 80% in the assay with Rhizoctonia solani; greater than 80% in the assay on Colletotrichum capsici; greater than 70% with Septoria lycopersici. In the assay on Fusarium culmorum [2], the inhibition of growth at 300 ppm came out at 75%. In addition, the pest or weed control at 500 ppm in the assay on Fusarium culmorum [1] was in the range of 70 to 100%.
`CCN(C)C=Nc1cc(F)c(Cc2cccc(F)c2)cc1C` [Compound 172, N-ethyl-N′-(5-fluoro-4-(3-fluorobenzyl)-2-methylphenyl)-N-methylformimidamide]: the inhibition of growth at 300 ppm was greater than 75% with Pyricularia oryzae; greater than 75% in the assay with Alternaria solani; greater than 80% in the assay on Botrytis cinerea; greater than 80% with Rhizoctonia solani; greater than 80% with Colletotrichum capsici; greater than 70% in the assay with Septoria lycopersici. Further, in the assay on Fusarium culmorum [2], the inhibition of growth at 300 ppm is 75%. In addition, in the assay on Fusarium culmorum [1], the pest or weed control at 500 ppm lay within 70 to 100%.

(Values after US11155517B2, “4-substituted phenylamine derivatives and their use to protect crops by fighting undesired phytopathogenic micoorganisms” (PI INDUSTRIES LTD., priority 2016, dated 2021).)
